Paper PMC10363981, “Optimizing the enzymatic release of MMAE from isoDGR-based small molecule drug conjugate by incorporation of a GPLG-PABC enzymatically cleavable linker” (Frontiers in Pharmacology, 2023)

Key:
[1] = tested on: SK-MEL-28 human melanoma cells; assay: In vitro antiproliferative activity, MTT, 72 h continuous treatment (no-washout); format: cell-based
Procedure: (§1) U87MG human malignant glioma, SK-MEL-28 human melanoma, SK-OV-3 human ovarian cancer, and A549 human lung cancer cell lines were purchased from ATCC. The cells were cultured in Dulbecco’s Modified Eagle’s Medium (DMEM; Biosera, Nuaille, France), supplemented with 10% heat-inactivated Fetal Bovine Serum (FBS; Biosera), and with 1% Penicillin/Streptomycin (Biosera). Cells were cultured in sterile T75 flasks with ventilation cap (Sarstedt, Nümbrecht, Germany) at 37 °C in a humidified atmosphere with 5% CO2 in ESCO CelCulture Incubator (ESCO, Friedberg, Germany). Manipulations with the cells were performed in biosafety cabinet (laminar) ESCO Sentinel Gold class II model AC2-4E8 (ESCO).
(§2) After standard trypsinization and harvesting cells by trypsin (Biosera), ethylenediaminetetraacetic acid (EDTA; Biosera) and PBS solution, 6×10^3 cells per well were seeded in serum containing (10%) growth medium to 96-well plates with flat bottom (Eppendorf, Hamburg, Germany), in a 100 μL volume per well, and incubated at 37°C.
(§3) […] The control wells were treated only with serum free medium (5% serum final).
(§4) For the evaluation of the in vitro antiproliferative activity of compounds, the cell viability was determined by MTT assay (3-(4,5-dimethylthiazol-2-yl)-2,5-diphenyl-tetrazolium bromide) obtained from Duchefa Biochemie (Haarlem, Netherlands).
(§5) 22 µL of MTT solution (5 mg/mL in PBS, 0.5 mg/mL final) was added to each well and after 2 h incubation at 37°C, the supernatant was removed. […] Average background absorbance (DMSO-Ethanol) was subtracted from absorbance values of control and treated wells, and cell viability was determined relative to untreated (control) wells where cell viability was arbitrarily set to 100%. […] The experiments were done in triplicate and each experiment was repeated three times.

[2] = tested on: U87MG human malignant glioma cells; assay: as above; format: cell-based
Procedure: as §1, §2, §3, §4, §5

[3] = Enzymatic cleavage assay with lysosomal homogenate; format: in vitro ADME; conditions: rat liver lysosomal homogenate, conjugate:lysosomal protein 1:10 (w/w), 0.2 M NaOAc pH 5.05, 37 °C, UPLC-HRMS
Procedure: The enzymatically cleavage test was performed by incubating the conjugate 2 with rat liver lysosomal homogenate and analyzed by LC–MS. In particular, the conjugate 2 (2.35 μg/μL in DMSO, 5 μL) was diluted with 0.2 M NaOAc solution (pH 5.05, 495 μL) to 0.024 μg/μL. The lysosomal homogenate was prepared from rat liver ([Gomena et al., 2023]), and contained proteins in 71.76 μg/μL concentration. 8.6 μL of this lysosomal homogenate was diluted with 66.4 μL 0.2 M NaOAc solution (pH 5.05), to have a protein concentration of 8.27 μg/μL. To start the assay, 15 μL lysosome homogenate (8.27 μg/μL) was added to 500 μL conjugate solution (0.025 μg/μL), to have a conjugate: lysosomal protein = 1:10 (w/w) ratio. Furthermore, a control reaction mixture was prepared, containing the conjugate (2.35 μg/μL in DMSO, 5 μL) and 510 μL of 0.2 M NaOAc solution (pH 5.05). The samples were stirred at 300 rpm, 37°C and 50 µL aliquots were taken out at 0 min, 15 min, 30 min, 1 h, 2 h, 6 h, 24 h, and 72 h. The enzymatic activity was quenched by adding 5 μL formic acid (FA) to the samples. After this procedure, samples were frozen immediately at −25°C. Control samples were collected at 0 min, 1 h, 6 h, 24 h and 72 h. The composition of the samples was determined by HPLC-MS. […] LC-MS data were analyzed by XcaliburTM software (Thermo Fisher Scientific).

[4] = MTT, 72 h continuous treatment, no washout, 5% serum final, triplicate, repeated three times
[5] = relative potency = ratio of IC50 of 2 vs MMAE, 72 h no washout

## CC[C@H](C)[C@@H]([C@@H](CC(=O)N1CCC[C@H]1[C@H](OC)[C@@H](C)C(=O)N[C@H](C)[C@@H](O)c1ccccc1)OC)N(C)C(=O)[C@@H](NC(=O)[C@H](C(C)C)N(C)C(=O)OCc1ccc(NC(=O)CNC(=O)[C@H](CC(C)C)NC(=O)[C@@H]2CCCN2C(=O)CNC(=O)CCc2cn(CCOCCOCCOCCOCC(=O)NCc3ccc(CN4C(=O)[C@H]5CC(=O)N[C@H](C(=O)O)CC(=O)NCC(=O)N[C@@H](CCCNC(=N)N)C(=O)NC[C@H]4C(=O)N5)cc3)nn2)cc1)C(C)C [compound 2, cyclo[DKP-isoDGR]-PEG4-GPLG-PABC-MMAE]
[1]; [4]
  IC50: 0.0704 ± 0.0071 µM
[1]; [5]
  RP [SMDC (2)/MMAE] SK-MEL-28: 29.49
[2]; [4]
  IC50: 0.0075 ± 0.0009 µM
[2]; [5]
  RP [SMDC (2)/MMAE] U87MG: 33.30
[3]
  cleavage of the conjugate in the presence of lysosomal enzymes: rapidly cleaved
  incubation time after which released free MMAE is detectable: ≤ 15 min
